From the NIST ThermoML archive (doi:10.1016/j.jct.2009.11.014)
± gives the expanded uncertainty stated by the source.

Conditions: Liquid; for viscosity: Stony Brook Scientific falling needle HPHTV-100 viscometer; for mass density: vibrating tube

CCn1cc[n+](C)c1.F[B-](F)(F)F [1-ethyl-3-methylimidazolium tetrafluoroborate]
Conditions | mass density [kg/m3] | viscosity [mPa·s]
303.95 K, 10300 kPa | – | 34.2 ± 3.6
304.05 K, 120 kPa | – | 30.9 ± 3.3
304.05 K, 680 kPa | – | 31.1 ± 3.3
304.05 K, 1730 kPa | – | 31.2 ± 3.3
304.05 K, 2710 kPa | – | 31.4 ± 3.3
304.05 K, 4300 kPa | – | 32.2 ± 3.4
304.05 K, 6340 kPa | – | 32.6 ± 3.4
304.05 K, 8250 kPa | – | 33.1 ± 3.5
304.05 K, 12210 kPa | – | 34.3 ± 3.6
304.05 K, 14300 kPa | – | 35.2 ± 3.7
308.15 K, 100 kPa | 1277.93 ± 1.6 | –
308.15 K, 2000 kPa | 1278.81 ± 1.6 | –
308.15 K, 4000 kPa | 1279.69 ± 1.6 | –
308.15 K, 6000 kPa | 1280.58 ± 1.6 | –
308.15 K, 8000 kPa | 1281.46 ± 1.6 | –
308.15 K, 10000 kPa | 1282.35 ± 1.6 | –
308.15 K, 12000 kPa | 1283.22 ± 1.6 | –
308.15 K, 14000 kPa | 1284.11 ± 1.6 | –
308.15 K, 20000 kPa | 1286.68 ± 1.6 | –
308.15 K, 30000 kPa | 1290.85 ± 1.6 | –
308.15 K, 40000 kPa | 1294.96 ± 1.6 | –
308.15 K, 50000 kPa | 1298.92 ± 1.7 | –
308.15 K, 60000 kPa | 1302.82 ± 1.7 | –
313.15 K, 100 kPa | 1274.17 ± 1.6 | –
313.15 K, 2000 kPa | 1275.04 ± 1.6 | –
313.15 K, 4000 kPa | 1275.93 ± 1.6 | –
313.15 K, 6000 kPa | 1276.8 ± 1.6 | –
313.15 K, 8000 kPa | 1277.73 ± 1.6 | –
313.15 K, 10000 kPa | 1278.61 ± 1.6 | –
313.15 K, 12000 kPa | 1279.51 ± 1.6 | –
313.15 K, 14000 kPa | 1280.39 ± 1.6 | –
313.15 K, 20000 kPa | 1283.04 ± 1.6 | –
313.15 K, 30000 kPa | 1287.29 ± 1.6 | –
313.15 K, 40000 kPa | 1291.42 ± 1.6 | –
313.15 K, 50000 kPa | 1295.43 ± 1.7 | –
313.15 K, 60000 kPa | 1299.37 ± 1.7 | –
313.65 K, 10170 kPa | – | 25.7 ± 2.7
313.65 K, 12290 kPa | – | 26 ± 2.7
313.65 K, 14100 kPa | – | 26.2 ± 2.7
313.75 K, 1760 kPa | – | 23.8 ± 2.5
313.75 K, 2730 kPa | – | 24.1 ± 2.5
313.75 K, 4350 kPa | – | 24.5 ± 2.6
313.75 K, 6270 kPa | – | 24.9 ± 2.6
313.75 K, 8230 kPa | – | 25.1 ± 2.6
313.85 K, 100 kPa | – | 23.3 ± 2.4
313.85 K, 700 kPa | – | 23.4 ± 2.4
313.85 K, 10300 kPa | – | 25.6 ± 2.7
318.15 K, 100 kPa | 1270.39 ± 1.6 | –
318.15 K, 2000 kPa | 1271.3 ± 1.6 | –
318.15 K, 4000 kPa | 1272.25 ± 1.6 | –
318.15 K, 6000 kPa | 1273.14 ± 1.6 | –
318.15 K, 8000 kPa | 1274.05 ± 1.6 | –
318.15 K, 10000 kPa | 1274.96 ± 1.6 | –
318.15 K, 12000 kPa | 1275.87 ± 1.6 | –
318.15 K, 14000 kPa | 1276.72 ± 1.6 | –
318.15 K, 20000 kPa | 1279.36 ± 1.6 | –
318.15 K, 30000 kPa | 1283.7 ± 1.6 | –
318.15 K, 40000 kPa | 1287.8 ± 1.6 | –
318.15 K, 50000 kPa | 1291.92 ± 1.6 | –
318.15 K, 60000 kPa | 1295.92 ± 1.7 | –
323.15 K, 100 kPa | 1266.69 ± 1.6 | –
323.15 K, 2000 kPa | 1267.58 ± 1.6 | –
323.15 K, 4000 kPa | 1268.52 ± 1.6 | –
323.15 K, 6000 kPa | 1269.45 ± 1.6 | –
323.15 K, 8000 kPa | 1270.37 ± 1.6 | –
323.15 K, 10000 kPa | 1271.28 ± 1.6 | –
323.15 K, 12000 kPa | 1272.19 ± 1.6 | –
323.15 K, 14000 kPa | 1273.08 ± 1.6 | –
323.15 K, 20000 kPa | 1275.76 ± 1.6 | –
323.15 K, 30000 kPa | 1280.1 ± 1.6 | –
323.15 K, 40000 kPa | 1284.32 ± 1.6 | –
323.15 K, 50000 kPa | 1288.41 ± 1.6 | –
323.15 K, 60000 kPa | 1292.42 ± 1.7 | –
323.65 K, 100 kPa | – | 18.4 ± 1.9
323.65 K, 700 kPa | – | 18.6 ± 1.9
323.65 K, 1700 kPa | – | 18.7 ± 2
323.75 K, 1200 kPa | – | 18.5 ± 1.9
323.75 K, 2300 kPa | – | 18.7 ± 2
323.75 K, 4200 kPa | – | 18.9 ± 2
323.75 K, 4500 kPa | – | 18.9 ± 2
323.75 K, 6100 kPa | – | 19 ± 2
323.75 K, 6600 kPa | – | 19.4 ± 2
323.75 K, 8200 kPa | – | 19.3 ± 2
323.75 K, 10200 kPa | – | 19.7 ± 2.1
323.75 K, 12400 kPa | – | 19.9 ± 2.1
323.75 K, 14300 kPa | – | 20.1 ± 2.1
